Data from patent US6914045B2, “Glycopeptide antibiotics” (Wyeth Holdings Corporation, priority 2001, dated 2005).

Legend:
Test in all cases: in vitro antibacterial evaluation, MIC by broth dilution
Format in all cases: cell-based
Enterococcus sp. = details: broth dilution, 18 hours at 35° C.
Summary of the method: (§1)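 Broth dilution per NCCLS standard M7-A2 in Muller-Hinton II […], with an inoculum of 5×10^5 CFU/mL and antibiotic spanning 64-0.06 μg/mL. The MIC is the lowest concentration that inhibits growth of the organism.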

Staphylococcus sp. = details: broth dilution, 18 hours at 35° C.
Summary of the method: as §1

Streptococcus sp. = details: broth dilution, 18 hours at 35° C.
Summary of the method: as §1

Escherichia coli = details: 18 hours at 35° C.

CC(c1ccccc1)C1NC(=O)CNC(=O)C(CO)NC(=O)C(C(O)C2CNC(=N)N2C2OC(CO)C(O)C(O)C2O)NC(=O)C(C(O)C2CNC(=N)N2)NC(=O)C(Cc2ccc(OC3OC(CO)C(OC4OC(CO)C(OCC=Cc5ccc(N(C)C)cc5)C(O)C4O)C(O)C3O)cc2)NC1=O (stereo not shown) [Example 243a]
2 µg/mL: MIC Streptococcus pneumoniae (GC 4565) (Streptococcus sp.) | MIC Streptococcus pneumoniae (GC 4565) (Streptococcus sp.; inoculum 5×10^5 CFU/mL, strain GC 4565)
32 µg/mL: MIC Enterococcus faecalis (ATCC 29212) (Enterococcus sp.) | MIC Enterococcus faecalis (GC 2242) (Enterococcus sp.) | MIC Enterococcus faecalis (GC 2691) (Enterococcus sp.) | MIC Enterococcus faecalis (GC 3059) (Enterococcus sp.) | MIC Enterococcus faecalis (GC 4552) (Enterococcus sp.) | MIC Enterococcus faecalis (GC 4553) (Enterococcus sp.) | MIC Enterococcus faecalis (GC 4554) (Enterococcus sp.) | MIC Enterococcus faecalis (GC 6189) (Enterococcus sp.) | MIC Enterococcus faecium (GC 2243) (Enterococcus sp.) | MIC Enterococcus faecium (GC 4556) (Enterococcus sp.) | MIC Enterococcus faecalis (ATCC 29212) (Enterococcus sp.; strain ATCC 29212) | MIC Enterococcus faecium (GC 2243) (Enterococcus sp.; strain GC 2243) | MIC Enterococcus faecalis (GC 4552) (Enterococcus sp.; strain GC 4552) | MIC Enterococcus faecalis (GC 4553) (Enterococcus sp.; strain GC 4553) | MIC Enterococcus faecalis (GC 4554) (Enterococcus sp.; strain GC 4554) | MIC Enterococcus faecium (GC 4556) (Enterococcus sp.; strain GC 4556) | MIC Enterococcus faecalis (GC 6189) (Enterococcus sp.; strain GC 6189) | MIC Enterococcus faecalis (GC 2242) (Enterococcus sp.; inoculum 5×10^5 CFU/mL, strain GC 2242) | MIC Enterococcus faecalis (GC 2691) (Enterococcus sp.; inoculum 5×10^5 CFU/mL, strain GC 2691) | MIC Enterococcus faecalis (GC 3059) (Enterococcus sp.; inoculum 5×10^5 CFU/mL, strain GC 3059) | MIC Coagulase Negative Staphylococcus (GC 4547) (Staphylococcus sp.) | MIC Coagulase Negative Staphylococcus (GC 4548) (Staphylococcus sp.) | MIC Coagulase Negative Staphylococcus (GC 4551) (Staphylococcus sp.) | MIC Staphylococcus aureus (ATCC 29213) (Staphylococcus sp.) | MIC Staphylococcus aureus (GC 1131) (Staphylococcus sp.) | MIC Staphylococcus aureus (GC 3051) (Staphylococcus sp.) | MIC Staphylococcus aureus (GC 3053) (Staphylococcus sp.) | MIC Staphylococcus aureus (GC 4541) (Staphylococcus sp.) | MIC Staphylococcus aureus (GC 4542) (Staphylococcus sp.) | MIC Staphylococcus aureus (GC 4544) (Staphylococcus sp.) | MIC Staphylococcus aureus (GC 4545) (Staphylococcus sp.) | MIC Staphylococcus aureus-SMITH (GC 4543) (Staphylococcus sp.) | MIC Staphylococcus haemolyticus (GC 4546) (Staphylococcus sp.) | MIC Staphylococcus aureus (ATCC 29213) (Staphylococcus sp.; strain ATCC 29213) | MIC Staphylococcus aureus (GC 1131) (Staphylococcus sp.; strain GC 1131) | MIC Staphylococcus aureus (GC 3051) (Staphylococcus sp.; strain GC 3051) | MIC Staphylococcus aureus (GC 3053) (Staphylococcus sp.; strain GC 3053) | MIC Staphylococcus aureus (GC 4541) (Staphylococcus sp.; strain GC 4541) | MIC Staphylococcus aureus (GC 4542) (Staphylococcus sp.; strain GC 4542) | MIC Staphylococcus aureus-SMITH (GC 4543) (Staphylococcus sp.; strain GC 4543) | MIC Staphylococcus aureus (GC 4544) (Staphylococcus sp.; strain GC 4544) | MIC Staphylococcus aureus (GC 4545) (Staphylococcus sp.; strain GC 4545) | MIC Staphylococcus haemolyticus (GC 4546) (Staphylococcus sp.; strain GC 4546) | MIC Coagulase Negative Staphylococcus (GC 4547) (Staphylococcus sp.; strain GC 4547) | MIC Coagulase Negative Staphylococcus (GC 4548) (Staphylococcus sp.; strain GC 4548) | MIC Coagulase Negative Staphylococcus (GC 4551) (Staphylococcus sp.; strain GC 4551) | MIC Escherichia coli (GC 4560) (Escherichia coli)
>64 µg/mL: MIC Escherichia coli (ATCC 25922) (Escherichia coli) | MIC Escherichia coli (GC 4559) (Escherichia coli)
1 µg/mL: MIC Streptococcus pneumoniae (GC 1894) (Streptococcus sp.) | MIC Streptococcus pneumoniae (GC 1894) (Streptococcus sp.; inoculum 5×10^5 CFU/mL, strain GC 1894)
8 µg/mL: MIC Streptococcus pyogenes (GC 4563) (Streptococcus sp.) | MIC Streptococcus pyogenes (GC 4563) (Streptococcus sp.; inoculum 5×10^5 CFU/mL, strain GC 4563)
16 µg/mL: MIC Enterococcus avium (GC 4558) (Enterococcus sp.) | MIC Enterococcus faecium (GC 4557) (Enterococcus sp.) | MIC Enterococcus faecium (GC 4557) (Enterococcus sp.; strain GC 4557) | MIC Enterococcus avium (GC 4558) (Enterococcus sp.; strain GC 4558) | MIC Coagulase Negative Staphylococcus (GC 4549) (Staphylococcus sp.) | MIC Coagulase Negative Staphylococcus (GC 6257) (Staphylococcus sp.) | MIC Coagulase Negative Staphylococcus (GC 4549) (Staphylococcus sp.; strain GC 4549) | MIC Coagulase Negative Staphylococcus (GC 6257) (Staphylococcus sp.; strain GC 6257) | MIC Streptococcus agalactiae (GC 4564) (Streptococcus sp.) | MIC Streptococcus pneumoniae (ATCC 6301) (Streptococcus sp.) | MIC Streptococcus pneumoniae (ATCC 6301) (Streptococcus sp.; inoculum 5×10^5 CFU/mL, strain ATCC 6301) | MIC Streptococcus agalactiae (GC 4564) (Streptococcus sp.; inoculum 5×10^5 CFU/mL, strain GC 4564)
